Assay results taken from patent US10160747B2, “Compounds and methods for kinase modulation, and indications therefor” (Plexxikon Inc., priority 2016, dated 2018).

Assays:
[1] = tested on: MOLM-14 D835Y (endogenous FLT3 ITD and transfected FLT3 D835Y); test: MOLM-14 D835Y cell proliferation assay (CellTiter-Glo); type: cell-based; conditions: Homo sapiens, MOLM-14, 72 h; 3 d growth, GMean
Procedure, shortened: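 MOLM-14 cells (FLT3 ITD) carrying D835Y or F691L, 1×10^4 cells/well, eight 1:3 dilutions from 1 μM final, 0.2% DMSO, 3 days at 37 °C, 5% CO2. Viability by CellTiter-Glo luminescence (ATP content); IC50 from concentration-response.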

BA/F3-FLT3-ITD + D835Y = target: T1, BA/F3-FLT3-ITD + D835Y (Homo sapiens, UniProt P36888, D835Y, cells depend on it, form not given); test: Engineered BA/F3 cell growth assay, FLT3 ITD/D835Y; type: cell-based, murine; conditions: 3 d growth
T1 sequence (P36888 with tags, fused parts or gaps INS600HVDFREYEYD/D835Y): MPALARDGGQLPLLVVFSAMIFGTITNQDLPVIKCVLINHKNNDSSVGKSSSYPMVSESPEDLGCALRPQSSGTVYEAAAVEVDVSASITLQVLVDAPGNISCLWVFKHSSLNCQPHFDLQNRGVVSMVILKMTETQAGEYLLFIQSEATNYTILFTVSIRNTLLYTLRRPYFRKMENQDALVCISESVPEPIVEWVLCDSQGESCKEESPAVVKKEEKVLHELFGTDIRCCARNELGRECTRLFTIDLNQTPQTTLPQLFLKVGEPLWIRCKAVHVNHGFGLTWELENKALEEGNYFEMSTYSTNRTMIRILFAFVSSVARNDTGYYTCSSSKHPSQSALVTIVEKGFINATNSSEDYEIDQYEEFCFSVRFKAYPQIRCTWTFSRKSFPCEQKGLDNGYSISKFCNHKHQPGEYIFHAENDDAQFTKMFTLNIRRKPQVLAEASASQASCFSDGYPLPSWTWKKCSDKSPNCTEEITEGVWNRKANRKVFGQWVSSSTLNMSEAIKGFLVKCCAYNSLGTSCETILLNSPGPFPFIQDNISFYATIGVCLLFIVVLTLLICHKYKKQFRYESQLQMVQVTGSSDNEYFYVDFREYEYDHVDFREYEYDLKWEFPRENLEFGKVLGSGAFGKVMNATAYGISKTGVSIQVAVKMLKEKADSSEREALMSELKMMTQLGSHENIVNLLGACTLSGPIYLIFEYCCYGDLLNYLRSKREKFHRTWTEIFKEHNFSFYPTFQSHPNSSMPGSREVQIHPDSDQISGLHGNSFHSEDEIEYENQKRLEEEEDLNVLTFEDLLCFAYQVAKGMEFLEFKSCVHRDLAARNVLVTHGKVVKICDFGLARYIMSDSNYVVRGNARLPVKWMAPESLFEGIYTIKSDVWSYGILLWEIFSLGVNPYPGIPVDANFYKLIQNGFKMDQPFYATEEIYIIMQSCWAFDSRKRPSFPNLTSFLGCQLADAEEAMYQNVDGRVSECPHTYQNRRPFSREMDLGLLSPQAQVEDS
Procedure, shortened: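 Murine Ba/F3 cells transfected with full-length FLT3 ITD/D835Y, grown without IL-3 so growth depends on FLT3. Seeded at 1×10^4 cells/well, 8-point 1:3 series to 1 μM top (0.2% DMSO), 3 days at 37 °C. CellTiter-Glo luminescence (ATP) versus concentration gave IC50.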

Compound | IC50 [1] [µM] | GI50 (BA/F3-FLT3-ITD + D835Y) [µM]
Cn1cnc(Nc2ncc(-c3ccc(CC(=O)Nc4cc(C(F)(F)F)ccn4)cc3)cn2)c1 [Compound P-0022, 2-[4-[2-[(1-methylimidazol-4-yl)amino]pyrimidin-5-yl]phenyl]-N-[4-(trifluoromethyl)-2-pyridyl]acetamide] | 0.0001 to 10 | 0.0001 to 10
COc1ncc(NC(=O)Cc2ccc(-c3cnc4[nH]c(C#Cc5cncn5C)cc4c3)cc2)cc1C(F)(F)F [Compound P-0227, N-[6-methoxy-5-(trifluoromethyl)-3-pyridyl]-2-[4-[2-[2-(3-methylimidazol-4-yl)ethynyl]-1H-pyrrolo[2,3-b]pyridin-5-yl]phenyl]acetamide] | 0.0001 to 10 | 0.0001 to 10
Cn1cc(Nc2ncc(-c3cc(F)c(CC(=O)Nc4cncc(C(F)(F)F)c4)cc3F)cn2)cn1 [Compound P-0207, 2-[2,5-difluoro-4-[2-[(1-methylpyrazol-4-yl)amino]pyrimidin-5-yl]phenyl]-N-[5-(trifluoromethyl)-3-pyridyl]acetamide] | 0.0001 to 10 | 0.0001 to 10
COc1ncc(NC(=O)Cc2ccc(-c3cnc(Nc4cn[nH]c4C)nc3)cc2)cc1C(F)(F)F [Compound P-0221, N-[6-methoxy-5-(trifluoromethyl)-3-pyridyl]-2-[4-[2-[(5-methyl-1H-pyrazol-4-yl)amino]pyrimidin-5-yl]phenyl]acetamide] | 0.0001 to 10 | 0.0001 to 10
O=C(Cc1ccc(-c2cnc(Nc3cnn(C4CC4)c3)nc2)cc1)Nc1cncc(C(F)(F)F)c1 [Compound P-0231, 2-[4-[2-[(1-cyclopropylpyrazol-4-yl)amino]pyrimidin-5-yl]phenyl]-N-[5-(trifluoromethyl)-3-pyridyl]acetamide] | 0.0001 to 10 | 0.0001 to 10
COc1ncc(NC(=O)Cc2ccc(-c3cnc4[nH]c(-c5ccc(C#N)nc5)cc4c3)cc2F)cc1C(F)(F)F [Compound P-0011, 2-[4-[2-(6-cyano-3-pyridyl)-1H-pyrrolo[2,3-b]pyridin-5-yl]-2-fluoro-phenyl]-N-[6-methoxy-5-(trifluoromethyl)-3-pyridyl]acetamide] | 0.0001 to 10 | 0.0001 to 10

Next, values leading:

IC50 [1] [µM] | GI50 (BA/F3-FLT3-ITD + D835Y) [µM] | Compound
0.0001 to 10 | 0.0001 to 10 | COCCn1cc(Nc2ncc(-c3ccc(CC(=O)Nc4cncc(C(F)(F)F)c4)c(F)c3)cn2)cn1 [Compound P-0267, 2-[2-fluoro-4-[2-[[1-(2-methoxyethyl)pyrazol-4-yl]amino]pyrimidin-5-yl]phenyl]-N-[5-(trifluoromethyl)-3-pyridyl]acetamide]
0.0001 to 10 | 0.0001 to 10 | CCn1cc(Nc2ncc(-c3ccc(CC(=O)Nc4cc(C(F)(F)F)ccn4)cc3)cn2)cn1 [Compound P-0250, 2-[4-[2-[(1-ethylpyrazol-4-yl)amino]pyrimidin-5-yl]phenyl]-N-[4-(trifluoromethyl)-2-pyridyl]acetamide]
0.0001 to 10 | 0.0001 to 10 | CCn1cc(Nc2ncc(-c3ccc(CC(=O)Nc4ccc(C(F)(F)F)cn4)cc3)cn2)cn1 [Compound P-0251, 2-[4-[2-[(1-ethylpyrazol-4-yl)amino]pyrimidin-5-yl]phenyl]-N-[5-(trifluoromethyl)-2-pyridyl]acetamide]
0.0001 to 10 | 0.0001 to 10 | COc1ncc(NC(=O)Cc2ccc(-c3cnc(Nc4cnn(C5CC5)c4)nc3)cc2)cc1C(F)(F)F [Compound P-0234, 2-[4-[2-[(1-cyclopropylpyrazol-4-yl)amino]pyrimidin-5-yl]phenyl]-N-[6-methoxy-5-(trifluoromethyl)-3-pyridyl]acetamide]
0.0001 to 10 | 0.0001 to 10 | COCCn1cc(Nc2ncc(-c3ccc(CC(=O)Nc4cnc(OC)c(C(F)(F)F)c4)c(F)c3)cn2)cn1 [Compound P-0265, 2-[2-fluoro-4-[2-[[1-(2-methoxyethyl)pyrazol-4-yl]amino]pyrimidin-5-yl]phenyl]-N-[6-methoxy-5-(trifluoromethyl)-3-pyridyl]acetamide]
